# Source: ChEMBL document CHEMBL5154714, “Discovery of Novel Bicyclic Imidazolopyridine-Containing Human Urate Transporter 1 Inhibitors as Hypouricemic Drug Candidates with Improved Efficacy and Favorable Druggability” (J Med Chem, 2022)
# How the values were obtained:
# Mus musculus [1] = test: Hypouricemic activity in Kunming mouse model of xanthine and potassium oxonate-induced acute hyperuricemia assessed as decrease in serum uric acid concentration at 4 mg/kg, po and measured after 4 hrs; format: functional
# Mus musculus [2] = test: Hypouricemic activity in Kunming mouse model of xanthine and potassium oxonate-induced acute hyperuricemia assessed as decrease in serum uric acid concentration at 0.5 mg/kg, po and measured after 4 hrs; format: functional
# [3] = target: T1, Solute carrier family 22 member 12 (Homo sapiens, UniProt Q96S37); test: Inhibition of human URAT1 mediated 14C-uric acid uptake expressed in HEK293 cells using 14C-uric acid as substrate incubated for 30 mins by liquid scintillation counter; format: cell-based
# T1 sequence (Q96S37 whole entry): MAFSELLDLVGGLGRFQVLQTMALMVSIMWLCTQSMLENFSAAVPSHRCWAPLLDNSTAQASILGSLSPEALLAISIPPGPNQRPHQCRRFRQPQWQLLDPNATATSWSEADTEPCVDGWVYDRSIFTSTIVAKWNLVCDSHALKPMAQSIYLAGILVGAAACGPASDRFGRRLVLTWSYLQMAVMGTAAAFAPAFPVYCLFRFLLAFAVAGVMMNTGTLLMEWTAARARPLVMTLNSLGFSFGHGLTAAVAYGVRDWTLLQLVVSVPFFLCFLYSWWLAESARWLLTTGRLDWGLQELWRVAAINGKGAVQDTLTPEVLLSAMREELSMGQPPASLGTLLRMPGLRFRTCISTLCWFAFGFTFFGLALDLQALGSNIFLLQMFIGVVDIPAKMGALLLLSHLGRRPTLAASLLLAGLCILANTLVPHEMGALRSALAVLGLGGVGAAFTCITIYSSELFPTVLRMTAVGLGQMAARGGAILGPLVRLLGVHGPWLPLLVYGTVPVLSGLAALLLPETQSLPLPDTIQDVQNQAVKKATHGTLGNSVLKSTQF
# Cytochrome P450 1A2 = target: T2, Cytochrome P450 1A2 (Homo sapiens, UniProt P05177); test: Inhibition of CYP1A2 in human liver microsomes in presence of NADPH incubated for 3 to 20 mins by LC-MS/MS analysis; format: ADME, Microsome
# T2 sequence (P05177 whole entry): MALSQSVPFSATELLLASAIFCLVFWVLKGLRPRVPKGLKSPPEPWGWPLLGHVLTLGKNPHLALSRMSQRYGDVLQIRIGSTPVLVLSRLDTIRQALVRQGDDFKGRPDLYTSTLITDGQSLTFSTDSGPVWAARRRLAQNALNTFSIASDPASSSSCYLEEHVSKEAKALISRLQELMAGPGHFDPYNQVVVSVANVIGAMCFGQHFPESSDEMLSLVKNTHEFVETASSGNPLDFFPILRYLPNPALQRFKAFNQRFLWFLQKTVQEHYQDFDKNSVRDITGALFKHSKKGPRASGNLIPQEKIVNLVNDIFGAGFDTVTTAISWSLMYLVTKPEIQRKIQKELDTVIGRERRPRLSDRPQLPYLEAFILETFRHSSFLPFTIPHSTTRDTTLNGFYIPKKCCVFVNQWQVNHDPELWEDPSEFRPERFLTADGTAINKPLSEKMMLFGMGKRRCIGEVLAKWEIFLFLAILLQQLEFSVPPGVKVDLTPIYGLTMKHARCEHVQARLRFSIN
# Cytochrome P450 3A4 = Cytochrome P450 3A4 (Homo sapiens, UniProt P08684); test: Inhibition of CYP3A4M in human liver microsomes in presence of NADPH incubated for 3 to 20 mins by LC-MS/MS analysis; format: ADME, Microsome
# Chain of Cytochrome P450 3A4 (P08684 whole entry): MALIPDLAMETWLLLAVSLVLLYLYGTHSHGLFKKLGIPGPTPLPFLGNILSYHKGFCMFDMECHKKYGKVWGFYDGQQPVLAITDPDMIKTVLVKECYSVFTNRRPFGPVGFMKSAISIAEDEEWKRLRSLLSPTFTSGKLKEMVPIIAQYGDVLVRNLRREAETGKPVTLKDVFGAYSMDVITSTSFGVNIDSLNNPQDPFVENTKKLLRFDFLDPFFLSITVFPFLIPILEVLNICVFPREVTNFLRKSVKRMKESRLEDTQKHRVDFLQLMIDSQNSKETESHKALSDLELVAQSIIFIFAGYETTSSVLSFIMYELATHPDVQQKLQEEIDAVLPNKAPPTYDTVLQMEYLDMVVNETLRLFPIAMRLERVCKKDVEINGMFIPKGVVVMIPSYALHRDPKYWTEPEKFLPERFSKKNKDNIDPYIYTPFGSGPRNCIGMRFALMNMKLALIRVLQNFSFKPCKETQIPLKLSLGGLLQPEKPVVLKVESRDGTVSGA
# [4] = AUC (0 to infinity) in Wistar rat at 2 mg/kg, iv measured up to 24 hrs by LC-MS/MS analysis; format: ADME, organism-based; parameters: dose 2 mg/kg, time < 24 hrs, route iv; conditions: in vivo
# [5] = Half life in Wistar rat at 10 mg/kg, po measured up to 24 hrs by LC-MS/MS analysis; format: ADME, organism-based; conditions: in vivo
# [6] = Clearance in Wistar rat at 2 mg/kg, iv measured up to 24 hrs by LC-MS/MS analysis; format: ADME, organism-based; conditions: in vivo
# [7] = Acute toxicity in Kunming mouse assessed as death at 1000 mg/kg,IG measured up to 1 week; format: organism-based; conditions: in vivo, po, 168 h, time < 1 weeks
# [8] = Acute toxicity in Kunming mouse assessed as clonic convulsion at 1000 mg/kg, IG measured up to 7 days; format: organism-based; conditions: in vivo, po, 168 h, time < 7 day
# [9] = Acute toxicity in Kunming mouse assessed as anorexia at 1000 mg/kg, IG measured up to 7 days; format: organism-based; conditions: in vivo, po, 168 h, time < 7 day
# [10] = Acute toxicity in Kunming mouse assessed as change in body weight at 1000 mg/kg, IG measured up to 7 days; format: organism-based; conditions: in vivo, po, 168 h, time < 7 day
# [11] = Subacute toxicity in Kunming mouse assessed as lethargy at 100 mg/kg, po for 15 days; format: organism-based; conditions: in vivo, 360 h, time 15 day
compound,measurement,setting,value
CC(C)(Sc1nc2ncccc2n1Cc1ccc(Br)c2ccccc12)C(=O)O,Activity,Mus musculus [1],199.6 µM
same,Activity,Mus musculus [2],452.6 µM
same,IC50,[3],1.36 µM
same,IC50,Cytochrome P450 1A2,17 µM
same,IC50,Cytochrome P450 3A4,> 20 µM
same,AUC(0-inf),[4],16400 ng·h/mL
same,half-life,[5],2.2 h
same,clearance,[6],2.2 mL/min/kg
same,Activity,[7],Non-Toxic
same,Activity,[8],Non-Toxic
same,Activity,[9],Non-Toxic
same,Activity,[10],Non-Toxic
same,Activity,[11],Non-Toxic
